IC50 data for 29 compounds are collected here from US20260226068A1, “IMIDAZOTRIAZINE IL-17A MODULATORS AND USES THEREOF” (DICE ALPHA, INC., priority 2023, published 2026).

For experiment [1], the target named is T1, IL-17A/A (Homo sapiens, UniProt Q16552).
T1 construct: purchased Genscript Z03228
T1 sequence (Q16552 24-155): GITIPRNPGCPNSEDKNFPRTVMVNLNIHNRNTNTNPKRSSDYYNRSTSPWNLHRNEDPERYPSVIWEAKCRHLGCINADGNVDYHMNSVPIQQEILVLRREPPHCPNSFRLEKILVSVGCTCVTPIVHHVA
Kind of experiment: IL-17A/A HEK-Blue cell assay (SEAP reporter). It counts as cell-based. As to conditions: HEK-Blue IL-17A reporter cells, IL17A/A 5 ng/mL, 20 hours, SEAP read at A630; read-out: HEK-Blue IL17AA (IC50 for IL-17A/A inhibition). On the procedure:
(§1) The HEK-Blue IL-17A reporter cell line (Fisher #NC 1408637) was used for cell-based IL-17A/A inhibition assays. Cells were grown and prepared for assays according to the manufacturer's instructions. This cell line consists of HEK 293 cells that were designed to expressed IL-17RA, IL-17RC, and the Act1 adapter molecule, the combination of which, when stimulated by IL-17A/A or IL17A/F activates a […] promoter and drives expression of the recombinant Secreted Alkaline Phosphatase (SEAP) gene. Media from the cells is then added to a development reagent (Quanti-Blue Substrate, Fisher #NC971 1613), and read at A630.
(§2) Compounds were dispensed in DMSO to an empty clear 384-well tissue culture plate in a titration ranging from 10 μM to 27 pM, with DMSO added to every well to a final concentration of […]. Cells were then added to the plate (45 μL/well at a concentration of 280,000 cells/mL). IL17A/A (Genscript #Z03228) or IL17A/F (R&D Systems) was added to the plate to a final concentration of 5 ng/mL and a final well volume of 50 μL. The cells, compound, and IL-17A/A or IL17A/F were then incubated for 20 hours before media was removed for SEAP analysis. The resulting inhibition curve was then analyzed using Dotmatics' integrated 4-parameter fit screening protocol to generate IC50 values.
(§3) Table 2 includes IC50 values for IL-17A/A and IL-17A/F inhibition of selected compounds; with compounds having a IC50 of A<100 nM; B 100-1000 nM; and C>1000 nM.

Experiment [2] concerns the target T2, IL-17A/F (Homo sapiens, UniProt Q16552+Q96PD4).
T2 construct: purchased R&D Systems
T2 sequence (Q16552 24-155): T1 sequence (Q16552 24-155)
T2 sequence (Q96PD4 31-163): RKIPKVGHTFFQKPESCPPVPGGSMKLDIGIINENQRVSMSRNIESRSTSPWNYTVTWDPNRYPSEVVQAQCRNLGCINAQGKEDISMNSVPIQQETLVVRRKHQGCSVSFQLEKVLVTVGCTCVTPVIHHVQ
Kind of experiment: IL-17A/F HEK-Blue cell assay (SEAP reporter). The settings on record: HEK-Blue IL-17A reporter cells, IL17A/F 5 ng/mL, 20 hours, SEAP read at A630; read-out: HEK-Blue IL17AF (IC50 for IL-17A/F inhibition). It counts as cell-based. The protocol: as §1, §2, §3

Where only a bound is given, the exact number is not on record here.

Regarding `CCn1nccc1C(=O)N[C@H](c1cn2nc(C[C@H]3C[C@@H](C(F)(F)F)CNC3=O)c(C3CCCOC3)nc2n1)[C@H]1CCCC(F)(F)C1` (single isomer, unassigned) [Compound 68], the IC50 in experiment [1] and in experiment [2] was < 0.1 µM in each case.
For `CCn1nccc1C(=O)N[C@H](c1cn2nc(C[C@H]3C[C@@H](C(F)(F)F)CNC3=O)c(C3CCCOC3)nc2n1)[C@@H]1CCCC(F)(F)C1` (single isomer, unassigned) [Compound 71], the IC50 in experiment [1] was < 0.1 µM; in experiment [2] it was 0.1 to 1 µM.
For `CCn1nccc1C(=O)N[C@H](c1cn2nc(C[C@H]3C[C@@H](C(F)(F)F)CNC3=O)c(C3CCOC3)nc2n1)[C@@H]1CCCC(F)(F)C1` (single isomer, unassigned) [Compound 72], in that order: < 0.1 µM and 0.1 to 1 µM.
In the same order, the values of `CCn1nccc1C(=O)N[C@H](c1cn2nc(C[C@H]3C[C@@H](C(F)(F)F)CNC3=O)c(C3CCOC3)nc2n1)[C@@H]1CCCC(F)(F)C1` (single isomer, unassigned) [Compound 73] are < 0.1 µM and 0.1 to 1 µM.
In the same order, the values of `O=C(N[C@H](c1cn2nc(C[C@H]3C[C@@H](C(F)(F)F)CNC3=O)cnc2n1)C1CCC(F)(F)CC1)c1nonc1[C@H]1CC1(F)F` (single isomer, unassigned) [Compound 76] are 0.1 to 1 µM and > 1 µM.
With `O=C(N[C@H](c1cn2nc(C[C@H]3C[C@@H](C(F)(F)F)CNC3=O)cnc2n1)C1CCC(F)(F)CC1)c1nonc1[C@@H]1CC1(F)F` (single isomer, unassigned) [Compound 77], the IC50 is < 0.1 µM in experiment [1] and > 1 µM in experiment [2].
In the same order, the values of `CC(C)n1nccc1C(=O)N[C@H](c1cn2nc(CC3C[C@@H](C(F)(F)F)CNC3=O)c(N3CCOCC3)nc2n1)C1CCC(F)(F)CC1` (single isomer, unassigned) [Compound 79] are < 0.1 µM and 0.1 to 1 µM.
Take `CC(C)n1nccc1C(=O)N[C@H](c1cn2nc(CC3C[C@@H](C(F)(F)F)CNC3=O)c(N3CCOCC3)nc2n1)C1CCC(F)(F)CC1` (single isomer, unassigned) [Compound 80]: the figures for the IC50 in experiment [1] and in experiment [2] were < 0.1 µM and > 1 µM, respectively.
With `CCn1nccc1C(=O)N[C@H](c1cn2nc(CC3C[C@@H](C(F)(F)F)CNC3=O)c(N3CC4CC(C3)O4)nc2n1)C1CCC(F)(F)CC1` (single isomer, unassigned) [Compound 81], the IC50 in experiment [1] is < 0.1 µM; in experiment [2], 0.1 to 1 µM.
In the case of `CCn1nccc1C(=O)N[C@H](c1cn2nc(CC3C[C@@H](C(F)(F)F)CNC3=O)c(N3CC4CC(C3)O4)nc2n1)C1CCC(F)(F)CC1` (single isomer, unassigned) [Compound 82], the IC50 in experiment [1] is < 0.1 µM; in experiment [2], > 1 µM.
`CCn1nccc1C(=O)N[C@H](c1cn2nc(CC3C[C@@H](C(F)(F)F)CNC3=O)c(N3C[C@H]4CC[C@@H](C3)O4)nc2n1)C1CCC(F)(F)CC1` (single isomer, unassigned) [Compound 83]: the results for the IC50 in experiment [1] and in experiment [2] were < 0.1 µM and 0.1 to 1 µM, respectively.
For `CCn1nccc1C(=O)N[C@H](c1cn2nc(CC3C[C@@H](C(F)(F)F)CNC3=O)c(N3C[C@H]4CC[C@@H](C3)O4)nc2n1)C1CCC(F)(F)CC1` (single isomer, unassigned) [Compound 84], the figures for the IC50 in experiment [1] and in experiment [2] were < 0.1 µM and 0.1 to 1 µM, respectively.
In the case of `CCn1nccc1C(=O)N[C@H](c1cn2nc(CC3C[C@@H](C(F)(F)F)CNC3=O)c(N3C[C@H]4C[C@@H]3CO4)nc2n1)C1CCC(F)(F)CC1` (single isomer, unassigned) [Compound 85], the IC50 in experiment [1] is 0.1 to 1 µM; in experiment [2] it was > 1 µM.
In the same order, the values of `CCn1nccc1C(=O)N[C@H](c1cn2nc(CC3C[C@@H](C(F)(F)F)CNC3=O)c(N3C[C@H]4C[C@@H]3CO4)nc2n1)C1CCC(F)(F)CC1` (single isomer, unassigned) [Compound 86] are < 0.1 µM and 0.1 to 1 µM.
As to `CCn1nccc1C(=O)N[C@H](c1cn2nc(CC3C[C@@H](C(F)(F)F)CNC3=O)c(N3CCOCC3)nc2n1)[C@H]1CCCC(F)(F)C1` (single isomer, unassigned) [Compound 90], the figures for the IC50 in experiment [1] and in experiment [2] were < 0.1 µM and 0.1 to 1 µM, respectively.
With `CCn1nccc1C(=O)N[C@H](c1cn2nc(CC3C[C@@H](C(F)(F)F)CNC3=O)c(N3CCOCC3)nc2n1)[C@H]1CCCC(F)(F)C1` (single isomer, unassigned) [Compound 91], the IC50 in experiment [1] was < 0.1 µM; in experiment [2], 0.1 to 1 µM.
In the same order, the values of `CCn1nccc1C(=O)N[C@H](c1cn2nc(CC3C[C@@H](C(F)(F)F)CNC3=O)c(N3CC4CC(C3)O4)nc2n1)[C@H]1CCCC(F)(F)C1` (single isomer, unassigned) [Compound 92] are < 0.1 µM and 0.1 to 1 µM.
In the same order, the values of `CCn1nccc1C(=O)N[C@H](c1cn2nc(CC3C[C@@H](C(F)(F)F)CNC3=O)c(N3CC4CC(C3)O4)nc2n1)[C@H]1CCCC(F)(F)C1` (single isomer, unassigned) [Compound 93] are < 0.1 µM and 0.1 to 1 µM.
In the same order, the values of `CCn1nccc1C(=O)N[C@H](c1cn2nc(CC3C[C@@H](C(F)(F)F)CNC3=O)c(N3CCOCC3)nc2n1)[C@@H]1CCCC(F)(F)C1` (single isomer, unassigned) [Compound 94] are < 0.1 µM and 0.1 to 1 µM.
In the case of `CCn1nccc1C(=O)N[C@H](c1cn2nc(CC3C[C@@H](C(F)(F)F)CNC3=O)c(N3CCOCC3)nc2n1)[C@@H]1CCCC(F)(F)C1` (single isomer, unassigned) [Compound 95], the IC50 was < 0.1 µM in experiment [1] and 0.1 to 1 µM in experiment [2].
Regarding `CCn1nccc1C(=O)N[C@H](c1cn2nc(CC3C[C@@H](C(F)(F)F)CNC3=O)c(N3CC4CC(C3)O4)nc2n1)[C@@H]1CCCC(F)(F)C1` (single isomer, unassigned) [Compound 96], the results for the IC50 in experiment [1] and in experiment [2] were < 0.1 µM and 0.1 to 1 µM, respectively.
For the compound `CCn1nccc1C(=O)N[C@H](c1cn2nc(CC3C[C@@H](C(F)(F)F)CNC3=O)c(N3CC4CC(C3)O4)nc2n1)[C@@H]1CCCC(F)(F)C1` (single isomer, unassigned) [Compound 97], the IC50 in experiment [1] is < 0.1 µM; in experiment [2], > 1 µM.
On to `CCn1nccc1C(=O)N[C@H](c1cn2nc(CC3C[C@@H](C(F)(F)F)CNC3=O)c(N3C[C@@H]4C[C@H]3CO4)nc2n1)C1CCC(F)(F)CC1` (single isomer, unassigned) [Compound 98], for which the IC50 in experiment [1] and in experiment [2] was < 0.1 µM throughout.
As for `CCn1nccc1C(=O)N[C@H](c1cn2nc(CC3C[C@@H](C(F)(F)F)CNC3=O)c(N3C[C@@H]4C[C@H]3CO4)nc2n1)C1CCC(F)(F)CC1` (single isomer, unassigned) [Compound 99], the results for the IC50 in experiment [1] and in experiment [2] were < 0.1 µM and > 1 µM, respectively.
In the same order, the values of `CC(C)n1nccc1C(=O)N[C@H](c1cn2nc(CC3C[C@@H](C(F)(F)F)CNC3=O)c(N3CCOCC3)nc2n1)[C@H]1CC[C@H](C)CC1` (single isomer, unassigned) [Compound 100] are < 0.1 µM and < 0.1 µM.
As for `CC(C)n1nccc1C(=O)N[C@H](c1cn2nc(CC3C[C@@H](C(F)(F)F)CNC3=O)c(N3CCOCC3)nc2n1)[C@H]1CC[C@H](C)CC1` (single isomer, unassigned) [Compound 101], the IC50 was < 0.1 µM in experiment [1] and 0.1 to 1 µM in experiment [2].
For `CCn1nccc1C(=O)N[C@H](c1cn2nc(CC3C[C@@H](C(F)(F)F)CNC3=O)c(N3CC4CC(C3)O4)nc2n1)[C@H]1CC[C@H](C)CC1` (single isomer, unassigned) [Compound 102], in that order: < 0.1 µM and < 0.1 µM.
For `CCn1nccc1C(=O)N[C@H](c1cn2nc(CC3C[C@@H](C(F)(F)F)CNC3=O)c(N3CC4CC(C3)O4)nc2n1)[C@H]1CC[C@H](C)CC1` (single isomer, unassigned) [Compound 103], in that order: < 0.1 µM and 0.1 to 1 µM.
As for `CCn1nccc1C(=O)N[C@H](c1cn2nc(CC3C[C@@H](C(F)(F)F)CNC3=O)c(N3CC4CCC(C3)O4)nc2n1)[C@H]1CC[C@H](C)CC1` (single isomer, unassigned) [Compound 104], the IC50 in experiment [1] and in experiment [2] was < 0.1 µM each time.
